Measurements: article PMC13128454, “Mutant p53 protein accumulation is selectively targetable by proximity-inducing drugs” (Nature Chemical Biology, 2025)
pEC50, pIC50: −log10 of the molar value. Several values for one entry are separate records, joined by “and”; a condition that tells them apart may be missing. Equal entries are not always repeated. Where two headings read alike, the source gives them in different places.

Assays:
Type in all cases: cell-based
[1] = system: MFE319 cells; test: CellTiter-Glo cell viability; set-up: p5301_AUC_to_10uM / AUC_rezatapopt: scale not given here; viability, replicates (sheet 4G): unit not given here; conditions: for mean_norm (normalized viability): 4 day; for viability, replicates (sheet 4G): No PMV6
Method: (§1) Cells were plated in 384-well plates (typically 1,500 cells per well) with varying concentrations of compounds, with a total volume of 50 μl per well. CTG reagent was added (25 μl) to the solutions, mixed and read out using an EnVision 2105 multimode plate reader.

[2] = CellTiter-Glo cell viability; set-up: p5301_AUC_to_10uM / AUC_rezatapopt: scale not given here; viability, replicates (sheet 4G): unit not given here; conditions: human, MFE319 cells, No PMV6, read-out: viability, replicates (sheet 4G)
Method: as §1

[3] = target: T1, p53-Y220C–PLK1 ternary complex (Homo sapiens, UniProt P04637+P53350, M133L/N239Y/N268D/V203A/Y220C); test: NanoBiT ternary complex assay in cotransfected 293T cells; conditions: for NLuc Signal, Average: 0 nM: 323
T1 construct: NLS–LgBiT–p53-Y220C (DBD) and mEGFP–PLK1–SmBiT; expressed in transfected cells; host or cells: 293T cells, transient cotransfection
Description: After 1 day, the cells were passaged into 384-well plates and treated with varying concentrations of compound.

[4] = p53-01 Concentration (µM) 0.0390625
[5] = p53-01 Concentration (µM) 0.078125
[6] = p53-01 Concentration (µM) 0.625
[7] = Concentration 2.44141 nM, 1 day
[8] = Concentration 4.88281 nM, 1 day
[9] = Concentration 9.76562 nM, 1 day
[10] = Concentration 19.5312 nM, 1 day
[11] = Concentration 39.0625 nM, 1 day

SMILES: CC[C@@H]1C(=O)N(C)c2cnc(Nc3ccc(C(=O)NCCOCCOCCOCCOCCC(=O)N4CCC(Nc5cccc6c5cc(C#CCNc5ccc(S(C)(=O)=O)cc5OC)n6CC(F)(F)F)CC4)cc3OC)nc2N1C1CCCC1 [p53-01, PMV6-PEG4-BI2536]
- pIC50 ([1]; 96 h, MFE319, 4 day treatment): 5.90
- p5301_AUC_to_10uM ([1]; MFE319): 0.3547
- mean_norm (normalized viability) ([1]; MFE319, Concentration 39.0625): 0.968
- mean_norm (normalized viability) ([1]; MFE319, Concentration 78.125): 0.9234
- mean_norm (normalized viability) ([1]; MFE319, Concentration 156.25): 0.9253
- mean_norm (normalized viability) ([1]; MFE319, Concentration 312.5): 0.9948
- mean_norm (normalized viability) ([1]; MFE319, Concentration 625): 0.9099
- mean_norm (normalized viability) ([1]; MFE319, Concentration 1250): 0.6095
- mean_norm (normalized viability) ([1]; MFE319, Concentration 2500): 0.3193
- mean_norm (normalized viability) ([1]; MFE319, Concentration 5000): 0.2865
- mean_norm (normalized viability) ([1]; MFE319, Concentration 10000): 0.2268
- relative viability, replicates (sheet 4E) ([1]; log Concentration (nM) 0.68867): 1.049 and 0.9314 and 0.9072 and 0.917
- relative viability, replicates (sheet 4E) ([1]; log Concentration (nM) 0.9897): 0.9806 and 0.996 and 0.993 and 0.8521
- relative viability, replicates (sheet 4E) ([1]; log Concentration (nM) 1.29073): 0.9742 and 1.022 and 0.9775 and 0.9343
- relative viability, replicates (sheet 4E) ([1]; log Concentration (nM) 1.59176): 1.009 and 1.026 and 0.9509 and 0.8871
- relative viability, replicates (sheet 4E) ([1]; log Concentration (nM) 1.89279): 0.9459 and 0.9044 and 0.9452 and 0.8983
- relative viability, replicates (sheet 4E) ([1]; log Concentration (nM) 2.19382): 0.8852 and 0.9848 and 0.9106 and 0.9206
- relative viability, replicates (sheet 4E) ([1]; log Concentration (nM) 2.49485): 1.036 and 1.016 and 1.021 and 0.9075
- relative viability, replicates (sheet 4E) ([1]; log Concentration (nM) 2.79588): 0.9347 and 0.9684 and 0.8932 and 0.8433
- relative viability, replicates (sheet 4E) ([1]; log Concentration (nM) 3.09691): 0.6355 and 0.6443 and 0.6092 and 0.549
- relative viability, replicates (sheet 4E) ([1]; log Concentration (nM) 3.39794): 0.3339 and 0.3826 and 0.2998 and 0.2608
- relative viability, replicates (sheet 4E) ([1]; log Concentration (nM) 3.69897): 0.3202 and 0.3151 and 0.2607 and 0.2498
- viability, replicates (sheet 4G) [1, 4]: 87.9896 and 96.6442 and 88.8312
- viability, replicates (sheet 4G) [1, 5]: 105.101 and 108.114 and 111.169
- viability, replicates (sheet 4G) ([1]; p53-01 Concentration (µM) 0.15625): 94.6597 and 96.7065 and 100.094 and 89.7143
- viability, replicates (sheet 4G) ([1]; p53-01 Concentration (µM) 0.3125): 90.6182 and 88.5922 and 96.6649 and 91.0338
- viability, replicates (sheet 4G) [1, 6]: 77.5481 and 91.8338 and 80.5818
- viability, replicates (sheet 4G) ([1]; p53-01 Concentration (µM) 1.25): 68.0623 and 80.2078 and 68.1143
- viability, replicates (sheet 4G) ([1]; p53-01 Concentration (µM) 2.5): 46.5039 and 41.4649 and 46.0156
- viability, replicates (sheet 4G) ([1]; p53-01 Concentration (µM) 5): 29.174 and 32.0623 and 26.6805
- viability, replicates (sheet 4G) ([1]; p53-01 Concentration (µM) 10): 23.1584 and 24.4468 and 23.2416
- rescue of viability decline by PMV6 ([1]; p53-01 with PMV6 2.5 μM, CTG 4 days): partially compete the decline in cell viability
- viability at 0.0390625 µM [2, 4]: 94%
- viability at 0.078125 µM [2, 5]: 99.7%
- viability at 0.625 µM [2, 6]: 85.4%
- viability at 1.25 µM ([2]; p53-01 Concentration (µM) 1.25): 61.2%
- viability at 2.5 µM ([2]; p53-01 Concentration (µM) 2.5): 41.5%
- viability at 5 µM ([2]; p53-01 Concentration (µM) 5): 30%
- viability at 10 µM ([2]; p53-01 Concentration (µM) 10): 22.2%
- pEC50 ([3]; 24 h, n = 4, read-out: NanoBiT EC50): 5.67
- pEC50 ([3]; 1 day, n = 6, Fig. 3b, read-out: EC50 NanoBiT ternary complex formation): 5.85
- NLuc Signal (replicate) ([3]; Concentration 1.2207 nM, 1 day): 300 and 316 and 296 and 324 and 308
- NLuc Signal, Average ([3]; Concentration 1.2207 nM, 1 day): 310
- NLuc Signal (replicate) [3, 7]: 356 and 348 and 308 and 360 and 340 and 324
- NLuc Signal, Average [3, 7]: 339.333
- NLuc Signal (replicate) [3, 8]: 316 and 344 and 284 and 312 and 332
- NLuc Signal, Average [3, 8]: 317.333
- NLuc Signal (replicate) [3, 9]: 328 and 336 and 296 and 308 and 312 and 360
- NLuc Signal, Average [3, 9]: 323.333
- NLuc Signal (replicate) [3, 10]: 352 and 360 and 304 and 296 and 324 and 300
- NLuc Signal, Average [3, 10]: 322.667
- NLuc Signal (replicate) [3, 11]: 404 and 356 and 324 and 368 and 332 and 364
- NLuc Signal, Average [3, 11]: 358
- NLuc Signal (replicate) ([3]; Concentration 78.125 nM, 1 day): 312 and 292 and 400 and 392 and 356
- NLuc Signal, Average ([3]; Concentration 78.125 nM, 1 day): 351.333
- NLuc Signal (replicate) ([3]; Concentration 156.25 nM, 1 day): 380 and 352 and 372 and 324 and 360 and 332
- NLuc Signal, Average ([3]; Concentration 156.25 nM, 1 day): 353.333
- NLuc Signal (replicate) ([3]; Concentration 312.5 nM, 1 day): 428 and 364 and 392 and 404 and 488
- NLuc Signal, Average ([3]; Concentration 312.5 nM, 1 day): 413.333
- NLuc Signal (replicate) ([3]; Concentration 625 nM, 1 day): 484 and 444 and 472 and 448 and 420 and 408
- NLuc Signal, Average ([3]; Concentration 625 nM, 1 day): 446
